The values that follow come from patent US20200207734A1, “HETEROCYCLIC COMPOUND AND USE THEREOF” (Takeda Pharmaceutical Company Limited, priority 2017, published 2020).

The test concerns the target T1, human orexin type 2 receptor (Homo sapiens, UniProt O43614).
T1 construct: human orexin type 2 receptor cDNA was inserted into pcDNA3.1(+) plasmid vector (Invitrogen); expressed in transfected cells
T1 sequence (O43614 1-444): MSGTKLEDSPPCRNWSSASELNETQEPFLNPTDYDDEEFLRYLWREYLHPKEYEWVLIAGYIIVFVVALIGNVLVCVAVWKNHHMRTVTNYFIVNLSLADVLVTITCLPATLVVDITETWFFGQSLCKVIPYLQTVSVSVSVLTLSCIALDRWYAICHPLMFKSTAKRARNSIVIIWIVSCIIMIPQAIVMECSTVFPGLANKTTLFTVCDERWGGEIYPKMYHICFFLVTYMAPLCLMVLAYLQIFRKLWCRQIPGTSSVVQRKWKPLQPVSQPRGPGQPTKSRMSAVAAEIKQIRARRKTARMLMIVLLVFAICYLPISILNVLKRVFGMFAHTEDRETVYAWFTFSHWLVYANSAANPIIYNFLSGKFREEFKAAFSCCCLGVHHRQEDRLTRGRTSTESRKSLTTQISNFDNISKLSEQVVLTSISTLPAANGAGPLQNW
The experiment in a line: Measurement of orexin type 2 receptor agonist activity (calcium fluorescence, CHO cells expressing hOX2R). The format is cell-based. The settings on record: test compound 3 μM; CHO cells expressing human OX2 receptor; DMSO = 0%, orexin A (human) = 100%. In short, it runs like this: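 CHO-dhfr cells stably expressing hOX2R, loaded with Fluo-4 AM in HBSS/20 mM HEPES/0.1% BSA with probenecid, then given test compound. Calcium fluorescence was read for about 2 min 40 sec. Activity (%) was scaled between DMSO (0%) and 10 nM final human orexin A (100%).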
On to `CS(=O)(=O)N[C@H]1CCN(C(=O)C2CCC2)[C@H]1Cc1cccc(-c2cccc(F)c2)c1` [Example 262, N-((2S,3S)-1-(cyclobutylcarbonyl)-2-((3′-fluorobiphenyl-3-yl)methyl)pyrrolidin-3-yl)methanesulfonamide], for which the “OX2R agonist activity (3 μM, %)” value is reported as 101%.

In the case of `CS(=O)(=O)N[C@H]1CCN(C(=O)C2(F)CCC2)[C@H]1Cc1cccc(-c2cccc(F)c2)c1` [Example 266, N-((2S,3S)-2-((3′-fluorobiphenyl-3-yl)methyl)-1-((1-fluorocyclobutyl)carbonyl)pyrrolidin-3-yl)methanesulfonamide], the “OX2R agonist activity (3 μM, %)” value amounted to 107%.

As to `CC1(C(=O)N2CC[C@H](NS(C)(=O)=O)[C@@H]2Cc2cccc(-c3cccc(F)c3)c2)CCC1` [Example 305, N-((2S,3S)-2-((3′-fluorobiphenyl-3-yl)methyl)-1-((1-methylcyclobutyl)carbonyl)pyrrolidin-3-yl)methanesulfonamide], the “OX2R agonist activity (3 μM, %)” value amounted to 105%.

In the case of `CS(=O)(=O)N[C@H]1CCN(C(=O)C23CC(C2)C3)[C@H]1Cc1cccc(-c2cccc(F)c2)c1` [Example 306, N-((2S,3S)-1-(bicyclo[1.1.1]pent-1-ylcarbonyl)-2-((3′-fluorobiphenyl-3-yl)methyl)pyrrolidin-3-yl)methanesulfonamide], the “OX2R agonist activity (3 μM, %)” value came out at 100%.

`CS(=O)(=O)N[C@H]1CCN(C(=O)C23CC(C2)C3)[C@H]1Cc1cccc(-c2cc(F)cc(F)c2)c1` [Example 307, N-((2S,3S)-1-(bicyclo[1.1.1]pent-1-ylcarbonyl)-2-((3′,5′-difluorobiphenyl-3-yl)methyl)pyrrolidin-3-yl)methanesulfonamide]: the “OX2R agonist activity (3 μM, %)” value is 102%.

For `CS(=O)(=O)N[C@H]1CCN(C(=O)C2(O)CCC2)[C@H]1Cc1cccc(-c2cccc(F)c2)c1` [Example 308, N-((2S,3S)-2-((3′-fluorobiphenyl-3-yl)methyl)-1-((1-hydroxycyclobutyl)carbonyl)pyrrolidin-3-yl)methanesulfonamide], the “OX2R agonist activity (3 μM, %)” value is 107%.

For the compound `CS(=O)(=O)N[C@H]1CCN(C(=O)C2(C(F)(F)F)CCC2)[C@H]1Cc1cccc(-c2cccc(F)c2)c1` [Example 309, N-((2S,3S)-2-((3′-fluorobiphenyl-3-yl)methyl)-1-((1-(trifluoromethyl)cyclobutyl)carbonyl)pyrrolidin-3-yl)methanesulfonamide], the “OX2R agonist activity (3 μM, %)” value turned out to be 101%.

`CS(=O)(=O)N[C@H]1CCN(C(=O)C2CCC2)[C@H]1Cc1cccc(-c2cc(F)cc(F)c2)c1` [Example 310, N-((2S,3S)-1-(cyclobutylcarbonyl)-2-((3′,5′-difluorobiphenyl-3-yl)methyl)pyrrolidin-3-yl)methanesulfonamide]: the “OX2R agonist activity (3 μM, %)” value is recorded as 102%.

With `Cc1cccc(-c2cccc(C[C@H]3[C@@H](NS(C)(=O)=O)CCN3C(=O)C3CCC3)c2)c1` [Example 311, N-((2S,3S)-1-(cyclobutylcarbonyl)-2-((3′-methylbiphenyl-3-yl)methyl)pyrrolidin-3-yl)methanesulfonamide], the “OX2R agonist activity (3 μM, %)” value worked out at 103%.

As to `COCS(=O)(=O)N[C@H]1CCN(C(=O)C2CCC2)[C@H]1Cc1cccc(-c2cccc(F)c2)c1` [Example 312, N-((2S,3S)-1-(cyclobutylcarbonyl)-2-((3′-fluorobiphenyl-3-yl)methyl)pyrrolidin-3-yl)-1-methoxymethanesulfonamide], the “OX2R agonist activity (3 μM, %)” value came out at 103%.

In the case of `CS(=O)(=O)N[C@H]1CCN(C(=O)N2CCC2)[C@H]1Cc1cccc(-c2cccc(F)c2)c1` [Example 313, N-((2S,3S)-1-(azetidin-1-ylcarbonyl)-2-((3′-fluorobiphenyl-3-yl)methyl)pyrrolidin-3-yl)methanesulfonamide], the “OX2R agonist activity (3 μM, %)” value came to 100%.

Regarding `COC1(C(=O)N2CC[C@H](NS(C)(=O)=O)[C@@H]2Cc2cccc(-c3cccc(F)c3)c2)CCC1` [Example 314, N-((2S,3S)-2-((3′-fluorobiphenyl-3-yl)methyl)-1-((1-methoxycyclobutyl)carbonyl)pyrrolidin-3-yl)methanesulfonamide], the “OX2R agonist activity (3 μM, %)” value worked out at 107%.
